Laboratory results reported in PubChem BioAssay (NCI).
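All cell lines were grown in 96-well plates and treated with compound for 48 hours. Abbreviation: GI50, concentration required for 50% inhibition of growth. The concentration for full growth arrest is given as TGI.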

Tests used:
Test in all cases: NCI tumour cell line growth inhibition, 48 h
HOP-62 NSCLC = tested on: HOP-62 NSCLC
NCI-H226 lung = tested on: NCI-H226 lung
PC-3 prostate = tested on: PC-3 prostate
SK-MEL-28 melanoma = tested on: SK-MEL-28 melanoma
CCRF-CEM leukemia = tested on: CCRF-CEM leukemia
SK-MEL-5 melanoma = tested on: SK-MEL-5 melanoma
SK-OV-3 ovarian = tested on: SK-OV-3 ovarian
HOP-18 NSCLC = tested on: HOP-18 NSCLC
M19-MEL melanoma = tested on: M19-MEL melanoma
DMS 273 small cell lung = tested on: DMS 273 small cell lung
XF 498 CNS = tested on: XF 498 CNS
SNB-78 CNS = tested on: SNB-78 CNS
LXFL 529 NSCLC = tested on: LXFL 529 NSCLC
RXF-631 renal = tested on: RXF-631 renal

Row | SMILES | TGI (HOP-62 NSCLC) [µM] | TGI (NCI-H226 lung) [µM] | TGI (PC-3 prostate) [µM] | TGI (SK-MEL-28 melanoma) [µM] | TGI (CCRF-CEM leukemia) [µM] | TGI (SK-MEL-5 melanoma) [µM] | TGI (SK-OV-3 ovarian) [µM] | GI50 (PC-3 prostate) [µM] | GI50 (SK-MEL-5 melanoma) [µM] | TGI (HOP-18 NSCLC) [µM] | TGI (M19-MEL melanoma) [µM] | TGI (DMS 273 small cell lung) [µM] | TGI (XF 498 CNS) [µM] | TGI (SNB-78 CNS) [µM] | TGI (LXFL 529 NSCLC) [µM] | TGI (RXF-631 renal) [µM]
1 | CO/N=C(\C(=O)OC(=NC1CCCCC1)NC1CCCCC1)c1csc(NC(c2ccccc2)(c2ccccc2)c2ccccc2)n1 | > 10 | > 10 | > 10 | > 10 | > 10 | > 10 | > 10 | – | – | – | – | – | – | – | – | –
2 | COc1cc(OC)cc(Oc2nc3ccccc3nc2C(F)(F)F)c1 | > 100 | > 100 | > 100 | > 100 | > 100 | > 100 | > 100 | – | – | – | – | – | – | – | – | –
3 | Cc1ccc(S(=O)(=O)c2[nH]cc(/C(=C\C3CCCCC3)[N+](=O)[O-])c2C2CCCCC2)cc1 | 3.71 | 9.9 | 2.53 | 2.75 | 0.991 | 1.21 | > 26.9 | – | – | – | – | – | – | – | – | –
4 | O=c1[nH]cnc2c1cnn2Cc1cn(CCCCO)nn1 | > 100 | > 100 | > 100 | > 100 | > 100 | > 100 | > 100 | – | – | – | – | – | – | – | – | –
5 | Cc1n(Cc2ccccc2)c2c([n+]1C)C(=O)c1ccccc1C2=O | 0.775 | 0.514 | 0.999 | 0.541 | > 100 | 0.0509 | 1.65 | – | – | – | – | – | – | – | – | –
6 | CC1CC(OP(=O)(OCc2ccccc2)OCc2ccccc2)[C@@H](OCc2ccccc2)C(OCc2ccccc2)C1OCc1ccccc1 (some centres undefined) | > 100 | > 100 | > 100 | > 100 | > 100 | > 100 | > 100 | – | – | – | – | – | – | – | – | –
7 | Nc1ccc2c(c1)C(=O)N1CCC[C@H]1C(=O)N2 | > 100 | > 100 | > 100 | > 100 | 20.5 | > 100 | > 100 | – | – | – | – | – | – | – | – | –
8 | Cc1ccnc2[nH]c(-c3ccc4ccccc4c3)cc(=O)c12 | 12.6 | 11.4 | 6.06 | 14.9 | 8.43 | 12.7 | 5.32 | 1.38 | 0.437 | – | – | – | – | – | – | –
9 | Cc1ccc(/C=N/Nc2cc(C)c3cccc(C)c3n2)s1 | 25.7 | 37.5 | 40.8 | > 100 | > 100 | 23.9 | 33.5 | – | – | – | – | – | – | – | – | –
10 | Brc1ccc2[nH]cc(-c3csc(-c4c[nH]c5ccccc45)n3)c2c1 | 16.4 | 4.56 | 10.2 | 15.3 | 5.89 | 5.64 | 20.7 | – | – | – | – | – | – | – | – | –
11 | O=C1Sc2cc3ccccc3cc2C(=O)Sc2ccc(Br)cc21 | 18.3 | 42.6 | 12.9 | 9.79 | > 19.7 | 27.5 | 29.3 | – | – | – | – | – | – | – | – | –
12 | COc1cc2c(cc1OC)C(CC1=C(c3ccccc3)CN3CCc4cc(OC)c(OC)cc4C3C1)NCC2 (centres undefined) | – | 37.2 | – | 28.5 | 37.6 | 31.3 | 43.9 | – | – | 30.9 | 30.7 | 31.6 | 25.9 | 31.9 | 31.1 | 30.4
13 | N#C[C@H](c1ccccn1)c1nc2ccccc2nc1Cl | > 100 | > 100 | > 100 | > 100 | > 100 | > 100 | > 100 | – | – | – | – | – | – | – | – | –
14 | O=S(=O)(O)CCCc1cccc2ccccc12 | > 100 | > 100 | > 100 | > 100 | > 100 | > 100 | > 100 | – | – | – | – | – | – | – | – | –
15 | COc1cccc(CCNC(=O)Cc2ccccc2CCO)c1 | > 100 | > 100 | > 100 | > 100 | > 100 | > 100 | > 100 | – | – | – | – | – | – | – | – | –
16 | O=[N+]([O-])c1ccc(CN(CCCl)OCCCl)cc1 | > 100 | > 100 | > 100 | > 100 | > 100 | > 100 | > 100 | – | – | – | – | – | – | – | – | –
17 | CC(C)(C)OC(=O)NC1CCCCC1NC(=O)C(=O)NC1CCCCC1NC(=O)OC(C)(C)C (centres undefined) | 80.6 | > 100 | > 100 | > 100 | > 100 | > 100 | > 100 | – | – | – | – | – | – | – | – | –
18 | CCn1c(-c2ccccc2)cs/c1=N\C(P(=O)(O)O)P(=O)(O)O | > 100 | > 100 | > 100 | > 100 | > 100 | > 100 | > 100 | – | – | – | – | – | – | – | – | –
19 | CC1=NN(c2nc(N)nc(/C(C#N)=C\c3ccc([N+](=O)[O-])s3)n2)C(C)(C)C1 | 1.75 | 8.18 | 0.429 | 1.21 | 0.0942 | 1.84 | 49.3 | – | – | – | – | – | – | – | – | –
20 | CCCC(=O)NC(NC1CCCCC1)(C(=O)OCC)C(F)(F)F (centres undefined) | > 100 | > 100 | > 100 | > 100 | > 100 | > 100 | > 100 | – | – | – | – | – | – | – | – | –
21 | COc1cc(C2c3cc4c(cc3OC(N3CCCCC3)C2C)OCO4)cc(OC)c1O (centres undefined) | 25.9 | > 64.2 | 22.2 | 27.3 | 25.1 | 19.8 | 19.9 | – | – | – | – | – | – | – | – | –
22 | CN(C)c1ccc(/C=c2/c3ccccc3n3c2c2c([n+]3C)CCCC2)cc1 | 1.58 | 2.43 | 2.06 | 2.06 | 5.17 | 0.217 | 2.07 | – | – | – | – | – | – | – | – | –
23 | CCOC1(OCC)C2C=CC1C(COS(=O)(=O)c1ccc(C)cc1)C2COS(=O)(=O)c1ccc(C)cc1 (centres undefined) | > 100 | 91.1 | 74.6 | > 100 | > 100 | 31 | > 100 | – | – | – | – | – | – | – | – | –
24 | O=c1oc2ccccc2cc1-c1cc2ccccn2c1 | > 100 | > 100 | > 100 | > 100 | > 100 | > 100 | > 100 | – | – | – | – | – | – | – | – | –
25 | O=C1/C(=C/c2ccc(Br)s2)NC(=S)N1c1ccccc1 | > 100 | > 100 | > 100 | > 100 | > 100 | > 100 | > 100 | – | – | – | – | – | – | – | – | –
26 | COC(=O)/C=C(\C(=O)OC)C1C(=O)Oc2c(C)c(=O)c3ccccc3n21 (centres undefined) | > 100 | > 100 | > 100 | > 100 | > 100 | > 100 | > 100 | – | – | – | – | – | – | – | – | –
